Key:
[1] = system: MCF-7 cells; experiment: Breast cancer cell viability assay (CellTiter-Glo, 5 days); type: cell-based; details: 5 days' compound exposure; for IC50: Homo sapiens, MCF7, 120 h
In short: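 MCF-7 cells, 320 per well in RPMI with 10% FBS and 20 mM HEPES, adhered overnight, then exposed 5 days to an eleven-point semilog dilution (final 0.3-0.000003 μM). CellTiter-Glo luminescence read; % viability = (sample − cell-free background)/(untreated − background) × 100.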

[2] = target: T1, ER-α in MCF-7 cells (Homo sapiens, UniProt P03372); experiment: Breast cancer cell ER-α in cell western assay (SP1); type: cell-based; parameters: endogenous in cells; host or cells: MCF-7; details: 4 or 24 hr post compound addition; for Emax: MCF7, SP1 antibody, read-out: ER-α In Cell Western Assay (SP1) Max Response; for DC50: SP1 antibody, read-out: ER-α In Cell Western Assay (SP1) IC50
T1 sequence (P03372 1-595): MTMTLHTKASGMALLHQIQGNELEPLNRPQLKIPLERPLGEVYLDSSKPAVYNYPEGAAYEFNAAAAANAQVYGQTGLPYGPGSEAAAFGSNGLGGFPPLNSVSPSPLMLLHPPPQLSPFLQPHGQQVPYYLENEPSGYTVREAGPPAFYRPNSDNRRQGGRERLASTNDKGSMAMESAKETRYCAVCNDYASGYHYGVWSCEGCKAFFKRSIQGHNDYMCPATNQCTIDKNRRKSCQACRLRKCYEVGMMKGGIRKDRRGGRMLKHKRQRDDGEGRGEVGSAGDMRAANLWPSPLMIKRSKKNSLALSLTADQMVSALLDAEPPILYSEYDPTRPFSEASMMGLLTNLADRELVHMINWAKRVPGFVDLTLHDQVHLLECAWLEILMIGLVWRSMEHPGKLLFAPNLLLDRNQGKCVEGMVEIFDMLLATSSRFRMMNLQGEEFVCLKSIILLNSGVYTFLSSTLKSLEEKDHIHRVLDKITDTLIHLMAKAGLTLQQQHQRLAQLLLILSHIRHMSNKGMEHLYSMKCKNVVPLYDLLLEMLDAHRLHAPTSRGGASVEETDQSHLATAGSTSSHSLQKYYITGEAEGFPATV
In short: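 Percent remaining ER: SP1 immunofluorescence normalized to DRAQ5 nuclear stain, compared with untreated controls. Treatment lasted 4 or 24 hr across 0.3–0.000003 μM final in MCF-7.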

| Structure (SMILES) | MCF7 Viability Assay Max Response [1] | IC50 [1] [nM] | Emax [2] [%] | DC50 [2] [nM] |
| --- | --- | --- | --- | --- |
| CC/C(=C(/c1ccc(/C=C/C(=O)NC2CCCC2)cc1)c1ccc2[nH]ncc2c1)c1ccccc1 [Compound 431, (E)-3-(4-((E)-1-(1H-Indazol-5-yl)-2-phenylbut-1-en-1-yl)phenyl)-N-cyclopentylacrylamide] | ++ (++ = a single % value ≧ 40%) | ≤ 100 | ≥ 40 | ≤ 100 |
| CC/C(=C(/c1ccc(/C=C/C(=O)O)cc1)c1ccc2[nH]ncc2c1F)c1cccc(Oc2cnccn2)c1 [Compound 377, (E)-3-(4-((E)-1-(4-Fluoro-1H-indazol-5-yl)-2-(3-(pyrazin-2-yloxy)phenyl)but-1-en-1-yl)phenyl)acrylic acid] | ++ (++ = a single % value ≧ 40%) | ≤ 100 | ≥ 40 | ≤ 100 |
| CC/C(=C(/c1ccc(/C=C/C(=O)O)cc1)c1ccc2[nH]c(=O)[nH]c2c1)c1ccccc1 [Compound 122, (E)-3-(4-((E)-1-(2-Oxo-2,3-dihydro-1H-benzo[d]imidazol-5-yl)-2-phenylbut-1-en-1-yl)phenyl)acrylic acid] | ++ (++ = a single % value ≧ 40%) | > 100 | ≥ 40 | > 100 |
| CC/C(=C(/c1ccc(/C=C/C(=O)O)cc1)c1ccc2[nH]ncc2c1)c1cccc(Oc2ccccc2)c1F [Compound 298, (E)-3-(4-((E)-2-(2-Fluoro-3-phenoxyphenyl)-1-(1H-indazol-5-yl)but-1-en-1-yl)phenyl)acrylic acid] | ++ (++ = a single % value ≧ 40%) | ≤ 100 | ≥ 40 | ≤ 100 |
| CC/C(=C(/c1ccc(/C=C/C(=O)O)cc1)c1ccc2[nH]ncc2c1)c1cccc(Oc2ccc(F)cc2)c1 [Compound 269, (E)-3-(4-((E)-2-(3-(4-Fluorophenoxy)phenyl)-1-(1H-indazol-5-yl)but-1-en-1-yl)phenyl)acrylic acid] | ++ (++ = a single % value ≧ 40%) | ≤ 100 | ≥ 40 | ≤ 100 |
| CC/C(=C(/c1ccc(/C=C/C(=O)O)cc1)c1cccc2[nH]ncc12)c1ccccc1F [Compound 31, (E)-3-(4-((E)-2-(2-Fluorophenyl)-1-(1H-indazol-4-yl)but-1-en-1-yl)phenyl)acrylic acid] | ++ (++ = a single % value ≧ 40%) | ≤ 100 | ≥ 40 | ≤ 100 |
| CC/C(=C(/c1ccc(/C=C/C(=O)O)cc1)c1ccn2nccc2c1)c1ccccc1 [Compound 125, (E)-3-(4-((E)-2-Phenyl-1-(pyrazolo[1,5-a]pyridin-5-yl)but-1-en-1-yl)phenyl)acrylic acid] | ++ (++ = a single % value ≧ 40%) | > 100 | ≥ 40 | > 100 |
| CC/C(=C(/c1ccc(/C=C/C(=O)O)cc1)c1ccc2[nH]ncc2c1)c1ccc(C)s1 [Compound 227, (E)-3-(4-((E)-1-(1H-Indazol-5-yl)-2-(5-methylthiophen-2-yl)but-1-en-1-yl)phenyl)acrylic acid] | ++ (++ = a single % value ≧ 40%) | ≤ 100 | ≥ 40 | ≤ 100 |
| CC/C(=C(/c1ccc(/C=C/C(=O)O)cc1)c1ccc2[nH]ncc2c1F)c1cccc(Oc2ncccn2)c1 [Compound 376, (E)-3-(4-((E)-1-(4-Fluoro-1H-indazol-5-yl)-2-(3-(pyrimidin-2-yloxy)phenyl)but-1-en-1-yl)phenyl)acrylic acid] | ++ (++ = a single % value ≧ 40%) | ≤ 100 | ≥ 40 | ≤ 100 |
| CC/C(=C(/c1ccc(/C=C/C(=O)O)cc1)c1ccc2c(c1)SCC(=O)N2)c1ccccc1 [Compound 103, (E)-3-(4-((E)-1-(3-Oxo-3,4-dihydro-2H-benzo[b][1,4]thiazin-7-yl)-2-phenylbut-1-en-1-yl)phenyl)acrylic acid] | ++ (++ = a single % value ≧ 40%) | > 100 | ≥ 40 | > 100 |
| CC/C(=C(/c1ccc(/C=C/C(=O)O)cc1)c1ccc2c(c1)CNC2=O)c1ccc(F)cc1Cl [Compound 287, (E)-3-(4-((E)-2-(2-Chloro-4-fluorophenyl)-1-(1-oxoisoindolin-5-yl)but-1-en-1-yl)phenyl)acrylic acid] | ++ (++ = a single % value ≧ 40%) | ≤ 100 | ≥ 40 | ≤ 100 |
| CC/C(=C(/c1ccc(/C=C/C(=O)O)cc1)c1ncc2[nH]ncc2n1)c1ccccc1 [Compound 149, (E)-3-(4-((E)-2-Phenyl-1-(1H-pyrazolo[4,3-d]pyrimidin-5-yl)but-1-en-1-yl)phenyl)acrylic acid] | + (+ = a single % value < 40%) | > 100 | ≥ 40 | > 100 |
| CC/C(=C(/c1ccc(/C=C/C(=O)O)cc1)c1ccc2[nH]ncc2c1)c1ccc2ncsc2c1 [Compound 259, (E)-3-(4-((E)-2-(Benzo[d]thiazol-6-yl)-1-(1H-indazol-5-yl)but-1-en-1-yl)phenyl)acrylic acid] | ++ (++ = a single % value ≧ 40%) | ≤ 100 | ≥ 40 | ≤ 100 |
| CC/C(=C(/c1ccc(/C=C/C(=O)Nc2nccs2)cc1)c1ccc2[nH]ncc2c1)c1ccccc1 [Compound 430, (E)-3-(4-((E)-1-(1H-Indazol-5-yl)-2-phenylbut-1-en-1-yl)phenyl)-N-(thiazol-2-yl)acrylamide] | ++ (++ = a single % value ≧ 40%) | ≤ 100 | ≥ 40 | ≤ 100 |
| CCCCCCOc1ccc(/C(CC)=C(\c2ccc(/C=C/C(=O)O)cc2)c2ccc3[nH]ncc3c2)cc1 [Compound 357, (E)-3-(4-((E)-2-(4-(Hexyloxy)phenyl)-1-(1H-indazol-5-yl)but-1-en-1-yl)phenyl)acrylic acid] | ++ (++ = a single % value ≧ 40%) | > 100 | ≥ 40 | > 100 |
| O=C(O)/C=C/c1ccc(/C(=C(\c2ccc(F)cc2Cl)C2CC2)c2cccc3[nH]ncc23)cc1 [Compound 73, (E)-3-(4-((E)-2-(2-Chloro-4-fluorophenyl)-2-cyclopropyl-1-(1H-indazol-4-yl)vinyl)phenyl)acrylic acid] | ++ (++ = a single % value ≧ 40%) | ≤ 100 | ≥ 40 | ≤ 100 |
| CC/C(=C(/c1ccc(/C=C/C(=O)O)cc1)c1ccc2[nH]c(=O)ccc2c1)c1ccccc1 [Compound 105, (E)-3-(4-((E)-1-(2-Oxo-1,2-dihydroquinolin-6-yl)-2-phenylbut-1-en-1-yl)phenyl)acrylic acid] | ++ (++ = a single % value ≧ 40%) | > 100 | ≥ 40 | > 100 |
| CC/C(=C(/c1ccc(/C=C/C(=O)O)cc1)c1ccc2[nH]ncc2c1)c1ccc(-c2cnn(C)c2)cc1 [Compound 384, (E)-3-(4-((E)-1-(1H-Indazol-5-yl)-2-(4-(1-methyl-1H-pyrazol-4-yl)phenyl)but-1-en-1-yl)phenyl)acrylic acid] | ++ (++ = a single % value ≧ 40%) | > 100 | ≥ 40 | > 100 |
| CC/C(=C(/c1ccc(/C=C/C(=O)O)cc1)c1ccc2[nH]ncc2c1)c1ccc(-c2cnccn2)cc1 [Compound 389, (E)-3-(4-((E)-1-(1H-Indazol-5-yl)-2-(4-(pyrazin-2-yl)phenyl)but-1-en-1-yl)phenyl)acrylic acid] | ++ (++ = a single % value ≧ 40%) | > 100 | ≥ 40 | ≤ 100 |
| CC/C(=C(/c1ccc(/C=C/C(=O)O)cc1)c1ccc2[nH]ncc2c1)c1cccc(Oc2ccccc2S(C)(=O)=O)c1 [Compound 374, (E)-3-(4-((E)-1-(1H-Indazol-5-yl)-2-(3-(2-(methylsulfonyl)phenoxy)phenyl)but-1-en-1-yl)phenyl)acrylic acid] | ++ (++ = a single % value ≧ 40%) | > 100 | ≥ 40 | > 100 |
| CC/C(=C(/c1ccc(/C=C/C(=O)O)cc1)c1cccc2[nH]ncc12)c1ccc(F)cc1Cl [Compound 30, (E)-3-(4-((E)-2-(2-Chloro-4-fluorophenyl)-1-(1H-indazol-4-yl)but-1-en-1-yl)phenyl)acrylic acid] | ++ (++ = a single % value ≧ 40%) | ≤ 100 | ≥ 40 | ≤ 100 |
